In patent US20100098657A1, “Method of Treating Cancer with Immunomodulatory Compounds and IgG” (priority 2007, published 2010):

What was measured:
[1] = test system: Rituximab-coated Raji cells; experiment: ADCC assay: NK cell specific lysis of Rituximab-coated Raji cells; assay type: cell-based, human
Experimental: (§1) Preparation of NK cells: Purified NK cells (5×10^4) were seeded in 96-well U-bottom plates in 100 μL of 10% RPMI-1640 medium, supplemented with human AB+ serum. […] The cells were then incubated at 37° C. overnight.
(§2) Preparation of Rituximab-coated target cancer cells: Various NHL cell lines (Namalwa, Raji, Farage, and Jeko-1) were treated with 20 μg/mL Rituximab (Rituximab, Genentech, Inc.) for 30 minutes at 37° C. Excess unbound Rituximab was then removed by a washing step.
Addition of Rituximab-coated target cells to NK cells: The Rituximab-coated target cells (5×103/100 μL/well) were added to the pretreated effector NK cells at a ratio of 10:1. The cells were then co-incubated for 4 hours at 37° C.
(§3) Cytotoxicity analysis: NK cell cytotoxicity against the tumor cell lines was analyzed using a standard lactate dehydrogenase release assay (CytoTox 96 Non-radioactive Cytotoxicity Assay, Promega) to measure ADCC in a 50 μL aliquot of supernatant. The experimental release was corrected by subtraction of the spontaneous release of effector cells at the corresponding dilution. Spontaneous release from target cells alone was <15% of the maximum release as determined with target cells lysed in 1% Triton X-100.
(§4) Determination of effector: target ratio: Specific lysis for each effector-to-target (E:T) cell ratio was calculated using the following formula: % specific lysis=([experimental release−spontaneous release]/[maximum release−spontaneous release])×100.
Enhancement of NK cell cytotoxicity by immunomodulatory compounds lenalidomide and pomalidomide was assessed following procedures substantially similar to those described in Section 6.3, above.

[2] = test system: Rituximab-coated CD20+ Raji cells; experiment: Monocyte-mediated lysis (ADCC) of Rituximab-coated Raji cells; assay type: cell-based, human
Experimental: NK cells and monocytes were isolated from fresh, buffy-coated, whole blood by 30-minute incubation with RossetteSep cocktail (StemCell Technologies, Inc.) followed by Ficoll-Hypaque density gradient centrifugation. CD56+ NK cells were isolated to ˜85% purity and CD14+ monocytes were isolated to ˜80% purity as determined by flow cytometry.
as §2, §3, §4
To evaluate monocyte ADCC, similar methods were used to prepare the monocytes.

Fas-L = Fas-L expression on CD56+ NK cells (flow cytometry); assay type: cell-based, human; conditions: FIG. 12
Experimental: Cytometry was undertaken on 50 μL samples containing 1×10^6 cells/mL in washing buffer, 2% FBS with 0.1% NaN3 in PBS. Fluorochrome-conjugated antibodies, unconjugated antibodies, and isotype control mAb were obtained from PharMingen (San Diego, Calif.). The cells were stained with anti-CD56-PE, anti-FasL-FITC or isotype control mAb (1 μg/10^6 cells), and analyzed by flow cytometry according to the manufacturer's instructions.

[3] = test system: Src homology-2 containing inositol 5′-phosphatase 1 (phospho-SHIP-1); experiment: Immunoblot analysis of phospho-SHIP-1; assay type: cell-based; conditions: IL-12 plus IgG; lenalidomide 10 μM
Experimental: (§5) FIG. 7 is a panel of bar graphs showing the quantitation of an immunoblot comparison of cells treated with either IL-12 alone, IgG alone, IL-12 plus IgG, or IL-12 plus IgG plus lenalidomide (at 0.1 μM to 10 μM).
SHIP-1 is a negative regulator of cell proliferation, survival, and activation and also a negative regulator of Fc-γ and cytokine receptor-mediated signaling (Parihar et al., 2005, Cancer Res. 65:9099-9107). The inhibition of phospho-SHIP-1 increases IFN-γ release following NK cell stimulation with IgG and IL-12 (Parihar et al., 2005, Cancer Res. 65:9099-9107, which is incorporated by reference herein in its entirety) and thus may contribute to the mechanism of action of lenalidomide.

pPLC-γ2 = experiment: Immunoblot analysis of pPLC-γ2; assay type: cell-based; conditions: IL-12 plus IgG
Experimental: as §5
(§6) Additionally, administration of the immunomodulatory compound lenalidomide was capable of increasing both pPLC-γ2 and pERK levels (FIGS. 7B and 7C). Increase in the levels of these proteins were also observed in connection with pomalidomide (FIGS. 13A and 13B). PLC-γ2 is involved in the maturation and activation of NK cells and triggers the release of lytic granules (Regunathan et al., 2006, Jour. Immunol 175:749-754, which is incorporated by reference herein in its entirety). PLC-γ2 also induces IFN-γ production and is necessary for cytotoxicity and chemokine production.

pERK = experiment: Immunoblot analysis of pERK; assay type: cell-based; conditions: IL-12 plus IgG
Experimental: as §5, §6

[4] = test system: Trastuzumab-coated SK-BR-3 cells; experiment: NK cell cytotoxicity against Trastuzumab-coated SK-BR-3 cells; assay type: cell-based, human
[5] = test system: Cetuximab-coated HCT-116 cells; experiment: NK cell cytotoxicity against Cetuximab-coated HCT-116 cells; assay type: cell-based, human; conditions: presence of IL-2
NK cells = experiment: NK cell chemokine/cytokine production in response to Trastuzumab-coated SK-BR3 cells; assay type: cell-based, human
Experimental: As shown herein, immunomodulatory compounds, either alone or in combination with other agents, can alter the expression of several growth factors.
The effects of immunomodulatory compounds lenalidomide and pomalidomide on NK cell chemokine/cytokine production in response to Trastuzumab-coated SK-BR3 cells were assessed using procedures substantially similar to those described in Section 6.6., above.

[6] = test system: Rituximab-coated CD20+ Jeko-1 (mantle cell lymphoma) cells; experiment: ADCC assay: NK cell-mediated killing of Rituximab-coated CD20+ Jeko-1 cells; assay type: cell-based, human
Experimental: as §1, §2
[…] The cells were then co-incubated for 4 hours at 37° C.
as §3, §4

[7] = presence of immobilized IgG and IL-2

Nc1cccc2c1C(=O)N(C1CCC(=O)NC1=O)C2=O (stereo not drawn) [pomalidomide, 1,3-dioxo-2-(2,6-dioxopiperidin-3-yl)-4-aminoisoindoline]
NK cell cytotoxicity ([1]; presence of IL-2 (FIG. 8B/9B)): significantly increases
NK cell cytotoxicity ([1]; presence of IL-12 (FIG. 8E/9E)): significantly increases
monocyte-mediated lysis ([2]; data not shown): enhance
NK cell Fas-L expression, results compared with lenalidomide (Fas-L): similar
levels of phospho-SHIP-1 [3]: decreased
pPLC-γ2 levels (pPLC-γ2): Increase
pERK levels (pERK): Increase
NK cell cytotoxicity ([4]; presence of IL-2): significantly increases
NK cell cytotoxicity ([4]; presence of IL-12): significantly increases
NK cell cytotoxicity [5]: significantly increases
production of any chemokines/cytokines (NK cells; compound alone): did not induce
production of GM-CSF (NK cells; [7]): dose-dependently enhanced
production of IL-8 (NK cells; [7]): dose-dependently enhanced
production of IP-10 (NK cells; [7]): dose-dependently enhanced
production of MCP-1 (NK cells; [7]): dose-dependently enhanced
production of MIP-1α (NK cells; [7]): dose-dependently enhanced
production of MIP-1β (NK cells; [7]): not
production of RANTES (NK cells; [7]): dose-dependently enhanced

Rituximab: anti-CD20 antibody Rituximab (Rituxan®)
NK cell-mediated killing ([6]; Rituximab-coated cells without lenalidomide, E:T 50:1): 70%
increase in tumor cell killing above background ([6]; single agent, background killing=40%): approximately 30%
maximum killing activity ([2]; Rituximab-coated cells, no immunomodulatory compound, E:T 50:1): ~30%
